{"source": "patent US20120269781A1", "about": "“METHOD FOR PROLIFERATING HAIR FOLLICLE STEM CELLS” (RNL BIO CO., LTD., priority 2009, published 2012)", "key": {"follicular stem cells [1]": {"system": "follicular stem cells", "assay": "Culture of follicular stem cells in 9 kinds of media with or without ROCK inhibitor", "assay_type": "cell-based, human", "settings": "10 μM", "protocol": "Then, the follicular stem cells were added to each well of a 12-well plate, and 1 ml of each of control groups and test groups for 9 kinds of media containing ITS+ (insulin, transferrine, selenium) premix, EGF, bFGF and an antibiotic/antimycotic mixture was added to each well of the 12-well plate. 10 μl (10 μM) of the ROCK inhibitor Y-27632 was added to each of the test groups, and the cells were cultured.\nAt days 2, 3 and 4 after the start of culture, the state of proliferation of the follicular stem cells in each of the media was observed, and the results of the observation are shown in FIGS. 1 to 5."}, "follicular stem cells [2]": {"system": "follicular stem cells", "assay": "Proliferation ability of follicular stem cells at various concentrations of ROCK inhibitor", "assay_type": "cell-based, human", "settings": "M199/F-12 medium, days 2-6", "protocol": "In order to examine the proliferation ability of follicular stem cells at various concentrations of the ROCK inhibitor, the ROCK inhibitor was added at various concentrations to a M199/F-12 medium containing ITS+ premix, EGF, bFGF and antibiotic/antimycotic mixture, and the follicular stem cells obtained in Example 1 were cultured in the medium. Specifically, 10 μM of the ROCK inhibitor was added to M199/F-12 used in Example 1, and the P1 follicular stem cells were cultured in the M199/F-12 medium and collected by TrypLE-Express treatment. Then, the cells were added to each well of a 6-well plate at a density of 7.70×10^5 cells, and 2 ml of M199/F-12 was added to each well of the 6-well plate. The cell suspension was plated in each well of a 6-well plate, and then the ROCK inhibitor Y-27632 was added at concentrations of 10 nM, 100 nM, 1 μM, 10 μM and 100 μM to the 5 wells (excluding the well for a control group) of the 6-well plate, respectively, followed by culture of the follicular stem cells. The medium was replaced at 2-day intervals during culture of the cells, and the cells were photographed 2, 3, 4, 5 and 6 days after the start of cell culture."}}}
{"smiles": "CC(N)C1CCC(C(=O)Nc2ccncc2)CC1", "note": "(stereo not drawn) [ROCK inhibitor, Y-27632]", "values": [{"measurement": "effect on the proliferation of the follicular stem cells compared to the control groups", "setting": "follicular stem cells [1]; in M199/F12, MEM-alpha, DMEM L/G, DMEM H/G, MCDB 131 and IMEM medium", "value": "good effects"}, {"measurement": "effect on the proliferation of the follicular stem cells compared to the control groups", "setting": "follicular stem cells [1]; in M199/F12 medium and MEM-alpha medium", "value": "most excellent effects"}, {"measurement": "effect on increase in the number and on the viability of follicular stem cells", "setting": "follicular stem cells [1]; specific media containing the ROCK inhibitor", "value": "excellent effects"}, {"measurement": "proliferation of the cells versus cells not treated", "setting": "follicular stem cells [2]; 100 nM or less", "value": "did not significantly differ"}, {"measurement": "morphology / differentiation of the cells", "setting": "follicular stem cells [2]; 1 μM or 100 μM", "value": "morphological change or differentiation of the cells appeared"}, {"measurement": "proliferation of the cells", "setting": "follicular stem cells [2]; 1 μM or 100 μM", "value": "enhanced"}]}
